These are literature values, as cited in patent US5817883A, “Processes for producing hydroxyaldehydes” (Union Carbide Chemicals & Plastics Technology Corporation, priority 1997, dated 1998).

The pKb is the negative decadic logarithm of the Kb, by convention in mol/L.

For one data set the following is noted: Table I, organophosphorus ligand basicity.
Regarding `CCP(CC)C(C)(C)C` [Diethyl-tert-butylphosphine], the pKb is recorded as 10.1. In the case of `CCP(CC)c1ccccc1` [Diethylphenylphosphine], the pKb was 6.4. Turning to `c1ccc(P(c2ccccc2)C2CCCCC2)cc1` [Diphenylcyclohexylphosphine], the pKb was 5. On to `CCP(c1ccccc1)c1ccccc1` [Diphenylethylphosphine], for which the pKb is given as 4.9. On to `CP(c1ccccc1)c1ccccc1` [Diphenylmethylphosphine], for which the pKb is on record as 4.5. For the compound `CN(C)c1ccc(P(c2ccc(N(C)C)cc2)c2ccc(N(C)C)cc2)cc1` [Tri(p-N,N-dimethylaminophenyl)phosphine], the pKb is 8.65. In the case of `COc1ccc(P(c2ccc(OC)cc2)c2ccc(OC)cc2)cc1` [Tri(p-methoxyphenyl)phosphine], the pKb is 4.6. Regarding `CCCCP(CCCC)CCCC` [Tri-n-butylphosphine], the pKb is listed as 8.4. For the compound `CCCCCCCCP(CCCCCCCC)CCCCCCCC` [Tri-n-octylphosphine], the pKb is listed as 8.4. For the compound `CCCP(CCC)CCC` [Tri-n-propylphosphine], the pKb was 8.7. `C1CCC(P(C2CCCCC2)C2CCCCC2)CC1` [Tricyclohexylphosphine]: the pKb is given as 10. For the compound `CCP(CC)CC` [Triethylphosphine], the pKb is listed as 8.7. As to `CP(C)C` [Trimethylphosphine], the pKb is 8.7. Turning to `c1ccc(P(c2ccccc2)c2ccccc2)cc1` [Triphenylphosphine, reference compound], the pKb is recorded as 2.74.

The data set is the same for the next values; noted with them: basicity of reference phosphine.
As to `c1ccc(P(c2ccccc2)c2ccccc2)cc1` [Triphenylphosphine, reference compound], the pKb is reported as 2.74.
